From patent US20070208088A1, “PQS: A NEW HYDROTROPE FOR SOLUBILIZING LIPOPHILIC COMPOUNDS IN WATER” (ZYMES, LLC, priority 2006, published 2007)

Experiment: Micelle formation and micelle particle size in aqueous solution
Type: physicochemical
Conditions: for particle size of the micelles: micelles formed in aqueous solution
Excerpt: In one example, the compounds of the invention form micelles when added to an aqueous solution. The particle sizes of these micelles can be determined using art recognized methods, such as light scattering techniques. In one embodiment, the particle size is between about 300 nm and about 1 nm, preferably between about 200 nm and about 1 nm, more preferably between about 100 nm and about 1 nm. Smaller particle sizes are generally preferred.
Smaller micelle size is generally preferred.

| Substance | micelle formation in aqueous solution | particle size of the micelles |
| --- | --- | --- |
| polyoxyethanyl-ubiquinol-sebacate [PQS-600] | forms micelles | about 120 nm |
| polyoxyethanyl-ubiquinol-sebacate [PQS-1000] | forms micelles | about 80 nm |
